Assay results reported in patent US10501492B2, “Antibiotic compounds” (priority 2009, dated 2019).

How the values were obtained:
[1] = Solubility (physical properties)
E. faecium = assay: MIC determination, Macro-broth dilution method (NCCLS); format: cell-based, Enterococcus faecium; settings: for Minimal Inhibitory Concentration: E. faecium, R-2 (VRE) (Table 5)
Source text: (§1) The in-vitro potency was established by minimum inhibitory concentration (MIC) determinations of the compounds of Formula I(a) and Formula I(b) against bacterial strains, by using the Macro-broth dilution method as per National Committee for Clinical Laboratory Standards (2000) guidelines (Methods for Dilution Antimicrobial Susceptibility Tests for Bacteria that Grow Aerobically—Fifth Edition: Approved Standard M7-A5. NCCLS, Wayne, Pa., USA). Mueller-Hinton broth was used as nutrient medium for the assay, unless stated otherwise. PM181104 (PCT publication no. WO2007119201) was used as known standard in all in-vitro experiments. For preparation of the stock solution the compounds of Formula I(a) and Formula I(b) were dissolved in chloroform (5% of the total required volume) and diluted using methanol (95% of the total required volume).

S. epidermidis = assay: as above; format: cell-based, Staphylococcus epidermidis
Source text: as §1

[2] = tested on: Bacillus megaterium FH1127 (124); assay: as above; format: cell-based
Source text: as §1

Bacillus cereus (121) = assay: as above; format: cell-based
Source text: as §1

[3] = tested on: Bacillus subtilis ATCC 6633 (123); assay: as above; format: cell-based
Source text: as §1

S. aureus = assay: as above; format: cell-based, Staphylococcus aureus
Source text: as §1

M. tuberculosis H37Rv = assay: Antimycobacterial activity, Luciferase reporter phage assay; format: cell-based, Mycobacterium tuberculosis; settings: 72 hours
[4] = in chloroform, ethyl acetate, methanol
[5] = S. aureus 209P (MSSA) (Table 5)
[6] = S. aureus E710, (MRSA) (Table 5)

## C=C(NC(=O)C(=C)NC(=O)c1csc(C2=NC3c4csc(n4)C4NC(=O)c5csc(n5)C(C(C)(O)C(C)O)NC(=O)C5CSC(=N5)/C(=C\C)NC(=O)C(C(C)O)NC(=O)c5csc(n5)C3(CC2)NC(=O)C(C)NC(=O)C(=C)NC(=O)C(C)NC(=O)C(C(C)C)NC2C=Cc3c(C(C)O)cc(nc3C2O)C(=O)OC4C)n1)C(N)=O (stereo not shown) [Compound of Formula I(a)]
[1]; [4]
  Solubility: Soluble
[1]; in water
  Solubility: insoluble
E. faecium; E. faecium C1 VRE 26
  MIC: 0.25 µg/mL
E. faecium; E. faecium C1 VRE 27
  MIC: 0.25 µg/mL
E. faecium; E. faecium C1 VRE 28
  MIC: 0.125 µg/mL
E. faecium; E. faecium C1 VRE 31
  MIC: 0.5 µg/mL
E. faecium; E. faecium C1 VRE 33
  MIC: 0.125 µg/mL
E. faecium; E. faecium C1 VRE 34
  MIC: 0.25 µg/mL
E. faecium; E. faecium KEM VRE 1
  MIC: 0.25 µg/mL
E. faecium; E. faecium KEM VRE 2
  MIC: 0.5 µg/mL
E. faecium; E. faecium KEM VRE 3
  MIC: 0.25 µg/mL
E. faecium; E. faecium KEM VRE 4
  MIC: 0.5 µg/mL
E. faecium; E. faecium KEM VRE 5
  MIC: 0.25 µg/mL
E. faecium; E. faecium R-2 (VRE) (Table 4)
  MIC: 0.25 µg/mL
E. faecium
  Minimal Inhibitory Concentration: 0.125 µg/mL
E. faecium; Enterococcus faecium, VSE (322)
  MIC: 0.125 µg/mL
S. epidermidis; S. epidermidis 823, Teicho^R, 230
  MIC: 0.25 µg/mL
S. epidermidis; S. epidermidis 2361 W, 246
  MIC: 0.25 µg/mL
S. epidermidis; S. epidermidis 4264 I (1) W, 247
  MIC: 0.125 µg/mL
S. epidermidis; S. epidermidis 6098, Erythro^R, 233
  MIC: >1 µg/mL
S. epidermidis; S. epidermidis 6729 II W, Erythro^R, 236
  MIC: 0.125 µg/mL
S. epidermidis; S. epidermidis Pat 01 IV, 251
  MIC: 0.25 µg/mL
[2]
  MIC: 0.125 µg/mL
Bacillus cereus (121)
  MIC: 0.031 µg/mL
[3]
  MIC: 0.031 µg/mL
S. aureus; [5]
  Minimal Inhibitory Concentration: 0.064 to 0.125 µg/mL
S. aureus; S. aureus 209 P, MSSA (Table 4)
  MIC: 0.063 µg/mL
S. aureus; S. aureus 503, MRSA, 62
  MIC: >1 µg/mL
S. aureus; S. aureus 789, MRSA, 64
  MIC: >1 µg/mL
S. aureus; S. aureus ATCC 33591, MRSA
  MIC: 0.125 µg/mL
S. aureus; S. aureus C1 MRSA 2
  MIC: 0.25 µg/mL
S. aureus; S. aureus C1 MRSA 3
  MIC: 0.25 µg/mL
S. aureus; S. aureus C1 MRSA 5
  MIC: 0.25 µg/mL
S. aureus; S. aureus C1 MRSA 7
  MIC: 0.125 µg/mL
S. aureus; S. aureus C1 MRSA 8
  MIC: 0.25 µg/mL
S. aureus; S. aureus C1 MRSA 9
  MIC: 0.25 µg/mL
S. aureus; S. aureus C1 MRSA 10
  MIC: 0.25 µg/mL
S. aureus; S. aureus C1 MRSA 13
  MIC: 0.25 µg/mL
S. aureus; S. aureus C1 MRSA 16
  MIC: 0.25 µg/mL
S. aureus; S. aureus C1 MRSA 17
  MIC: 0.125 µg/mL
S. aureus; S. aureus C1 MRSA 20
  MIC: 0.125 µg/mL
S. aureus; S. aureus C1 MRSA 21
  MIC: 0.125 µg/mL
S. aureus; S. aureus C1 MRSA 22
  MIC: 0.25 µg/mL
S. aureus; S. aureus C1 MRSA 23
  MIC: 0.016 µg/mL
S. aureus; S. aureus C1 MRSA 24
  MIC: 0.25 µg/mL
S. aureus; S. aureus C1 MRSA 25
  MIC: 0.15 µg/mL
S. aureus; [6]
  Minimal Inhibitory Concentration: 0.125 µg/mL
S. aureus; S. aureus E710, MRSA (Table 4)
  MIC: 0.125 µg/mL
S. aureus; S. aureus E712, MRSA Erythro^R, 59
  MIC: 0.25 µg/mL
S. aureus; S. aureus KEM MRSA 1
  MIC: 0.25 µg/mL
S. aureus; S. aureus KEM MRSA 2
  MIC: 0.25 µg/mL
S. aureus; S. aureus KEM MRSA 3
  MIC: 0.25 µg/mL
S. aureus; S. aureus KEM MRSA 4
  MIC: 0.125 µg/mL
S. aureus; S. aureus KEM MRSA 5
  MIC: 0.125 µg/mL
S. aureus; S. aureus MRSA 3 lilavati
  MIC: 0.125 µg/mL
S. aureus; S. aureus Misk MRSA 35
  MIC: 0.125 µg/mL
S. aureus; S. aureus Misk MRSA 37
  MIC: 0.125 µg/mL
S. aureus; S. aureus Misk MRSA 38
  MIC: 0.125 µg/mL
S. aureus; S. aureus SG 511, MRSA, 63
  MIC: 1 µg/mL
M. tuberculosis H37Rv; 0.5 μg/mL
  % reduction in RLU: 36.36%
M. tuberculosis H37Rv; 5 μg/mL
  % reduction in RLU: 77.17%
M. tuberculosis H37Rv; 10 μg/mL
  % reduction in RLU: 83.76%

## C=C(NC(=O)c1csc(C2=NC3c4csc(n4)C4NC(=O)c5csc(n5)C(C(C)(O)C(C)O)NC(=O)C5CSC(=N5)/C(=C\C)NC(=O)C(C(C)O)NC(=O)c5csc(n5)C3(CC2)NC(=O)C(C)NC(=O)C(=C)NC(=O)C(C)NC(=O)C(C(C)C)NC2C=Cc3c(C(C)O)cc(nc3C2O)C(=O)OC4C)n1)C(=O)NC(C)C(N)=O (stereo not shown) [Compound of Formula I(b)]
[1]; [4]
  Solubility: Soluble
[1]; in water
  Solubility: insoluble
E. faecium
  Minimal Inhibitory Concentration: 2 µg/mL
S. aureus; [5]
  Minimal Inhibitory Concentration: 0.25 to 0.5 µg/mL
S. aureus; [6]
  Minimal Inhibitory Concentration: 2 µg/mL
M. tuberculosis H37Rv; 0.5 μg/mL
  % reduction in RLU: 28.87%
M. tuberculosis H37Rv; 5 μg/mL
  % reduction in RLU: 54.83%
M. tuberculosis H37Rv; 10 μg/mL
  % reduction in RLU: 76.73%
